According to patent US8318186B2, “Use of at least a fatty ester for preparing a composition designed to inhibit 5-α-reductase activity, in pharmacology, in particular dermatology, in cosmetics and as food additive” (Laboratoires Expanscience, priority 2000, dated 2012):
Several values for one entry are separate records, joined by “and”; a condition that tells them apart may be missing. Identical values can stand only once. Marks after values point to notes of the source that are not given here.

Test system: 5α-reductase
Assay: Fatty acid esters on 5α-reductase activity, conversion of testosterone to 5α-dihydrotestosterone in normal human dermal fibroblast cultures (Example 4)
Type: cell-based
Design: key to group by 5α-reductase inhibitory activity: group A with the highest inhibitory activity; group B with an intermediate inhibitory activity
Settings: for inhibition of the 5α-reductase activity: Example 4, p<0.05; for 5α-DHT formed per culture well, mean / 5α-DHT formed per culture well, single well: after 24 of incubation, DMSO 0.1% (v/v); for 5α-DHT formed per culture well, single well: single replicate
Description: The fibroblast culture medium (FCM) consisted of MEM/M199 (3:1, v/v) supplemented with penicillin (50 IU/ml), streptomycin (50 μg/ml), sodium bicarbonate (0.2%, w/v) and FCS (10%, v/v).
The assay system consisted of normal human dermal fibroblasts cultured as a monolayer. The fibroblasts were isolated from a residue from abdominal plastic surgery performed on a person (subject BIOPREDIC No. I0013). The cells were used at the fifth passage; they were cultured until the monolayers were confluent in FCM medium at 37° C. in a humid atmosphere containing 5% CO2.
The fibroblast incubation medium (FIM) consisted of FCM supplemented with tritiated testosterone (1.6×10^−7 M, that is 6.32 μCi/ml) and nonradiolabeled testosterone (3.84×10^−6 M)
The test products and finasteride were taken up in DMSO before being diluted in the incubation medium. […]
The fibroblast cultures were preincubated in the presence of the test products or of the reference product for 2 hours before adding the substrate, testosterone. For this step, the test products and the reference product were prepared in the FCM medium.
After preincubation, the fibroblast cultures were incubated in the presence of the test products or of the reference product prepared in the FIM medium for 22 hours at 37° C. in a humid atmosphere containing 5% CO2. Control cultures were incubated in the FIM medium in the absence of test products and of reference product. […]
Each experimental condition was tested in triplicate.
After the incubation period, the cells were subjected to the action of ultrasound in the FIM medium. The cellular lysates thus obtained were extracted with dichloromethane. After evaporation, the dry residues were taken up in methanol and were deposited on 60F254 silica plates (MERCK, reference 5554).
The migration solvent was a mixture of dichloromethane and ether (7:3, v/v) At the end of the migration, the silica plates were read using a BERTHOLD radioactivity scanner.
The metabolizing of testosterone to 5α-dihydro-testosterone under the various experimental conditions was calculated: the results (areas of the 5α-dihydrotestosterone peaks counted by the BERTHOLD scanner) were expressed in pmol of 5α-dihydro-testosterone formed per culture well. They were also expressed as a percentage of the 5α-reductase activity present in the “DMSO control” group.
The groups of data (control group and treated groups) were treated by a one-way analysis of variance (ANOVA 1, p<0.05), followed by a DUNNETT's test (p<0.05). The effect of the test products and of the reference product was compared with the “DMSO control” group. The effects of the test products were compared to each other by a two-way analysis of variance (ANOVA 2, p<0.05, factor 1=concentration and factor 2=treatment).
The same materials and methods are used as in example 3 above.
It was proposed to evaluate the effect of fatty acid esters on the 5α-reductase activity. An in vitro model of normal human dermal fibroblast cultures was selected. The products tested were chosen from the group of fatty acid esters varying in the length and the functionality of the fatty chain, and the nature of the alkoxy group. These esters are the following: methyl oleate, methyl linoleate, methyl stearate, methyl laurate, methyl undecylenate, butyl oleate, oleyl oleate and methyl ricinoleate.

## CCCCCCCC/C=C\CCCCCCCC(=O)OC [Methyl oleate, methyl oleate]
1 μg/ml
  5α-reductase activity as percentage of the “DMSO 0.1% (v/v)” group: 71 percentage of the “DMSO 0.1% (v/v)” group
  inhibition of the 5α-reductase activity: 29%
  5α-DHT formed per culture well, mean: 8.12* +/− pmol of 5α-DHT formed/culture well
  5α-DHT formed per culture well, single well: 8.24 pmol of 5α-DHT formed/culture well and 8.28 pmol of 5α-DHT formed/culture well and 7.84 pmol of 5α-DHT formed/culture well
10 μg/ml
  5α-reductase activity as percentage of the “DMSO 0.1% (v/v)” group: 58 percentage of the “DMSO 0.1% (v/v)” group
  inhibition of the 5α-reductase activity: 42%
  5α-DHT formed per culture well, mean: 6.61* +/− pmol of 5α-DHT formed/culture well
  5α-DHT formed per culture well, single well: 6.28 pmol of 5α-DHT formed/culture well and 6.44 pmol of 5α-DHT formed/culture well and 7.12 pmol of 5α-DHT formed/culture well
100 μg/ml
  5α-reductase activity as percentage of the “DMSO 0.1% (v/v)” group: 64 percentage of the “DMSO 0.1% (v/v)” group
  inhibition of the 5α-reductase activity: 26%
  5α-DHT formed per culture well, mean: 7.24* +/− pmol of 5α-DHT formed/culture well
  5α-DHT formed per culture well, single well: 7.52 pmol of 5α-DHT formed/culture well and 7.00 pmol of 5α-DHT formed/culture well and 7.20 pmol of 5α-DHT formed/culture well
Tested at 1, 10 and 100 μg/ml
  group by 5α-reductase inhibitory activity: A
